The target of assay [1] is T1, FPR2 (PathHunter eXpress CHO-K1 FPR2 cells) (Homo sapiens, UniProt P25090).
T1 sequence (P25090 1-351): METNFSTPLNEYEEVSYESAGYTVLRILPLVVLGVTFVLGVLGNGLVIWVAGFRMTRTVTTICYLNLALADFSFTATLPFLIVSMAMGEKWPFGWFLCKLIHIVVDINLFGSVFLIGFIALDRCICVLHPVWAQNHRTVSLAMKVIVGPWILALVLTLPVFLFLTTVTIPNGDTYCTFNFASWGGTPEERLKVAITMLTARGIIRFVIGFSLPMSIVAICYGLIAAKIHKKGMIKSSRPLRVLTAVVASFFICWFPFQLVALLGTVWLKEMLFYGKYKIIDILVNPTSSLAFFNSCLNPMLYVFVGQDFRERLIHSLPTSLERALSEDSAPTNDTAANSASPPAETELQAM
The assay can be described thus: beta-arrestin recruitment, PathHunter enzyme fragment complementation. Format: cell-based. Background: Activated receptors often draw arrestin, which recruitment assays turn into a signal.

In assay [2] the target is T2, FPR2 (human blood neutrophils) (Homo sapiens, UniProt P25090).
T2 sequence (P25090 1-351): T1 sequence (P25090 1-351)
The assay can be described thus: NADPH-oxidase superoxide release, isoluminol chemiluminescence, peak response. Format: cell-based. The note with it: agonist; naive neutrophils, 37 °C, pH 7.3.

A word on the EC50: it is the concentration at which the effect is half-maximal. A low value points to higher potency in that assay. Take `Cc1cccc(-c2oc(C)nc2C(=O)Nc2cnn(Cc3nc(C(C)(F)F)co3)n2)c1` [Act-389949, N-(2-{[4-(1,1-difluoroethyl)-1,3-oxazol-2-yl]methyl}-2H-1,2,3-triazol-4-yl)-2-methyl-5-(3-methylphenyl)-1,3-oxazole-4-carboxamide]: the EC50 is roughly 20 nM in assay [1] and roughly 10 nM in assay [2].

Values taken from paper doi:10.1101/571604v1 (biorxiv, 2019).
